The EC50 is the concentration that produces a half-maximal response.

The results in this text go back to article PMC6544337, “Development of chimeric and bifunctional antagonists for CLR/RAMP receptors” (PLoS ONE, 2019).

Experiment [1] deals with CLR/RAMP1 (Homo sapiens, UniProt O60894+Q16602). Description: CLR/RAMP1 cAMP assay, agonist mode (DiscoveRx HitHunter cAMP XS+). The experiment is classed as cell-based. Conditions: for CLR/RAMP1 Max Activity % of control: agonist mode, positive control CGRP, 1321N1 cells. On the procedure: (§1) The bioactivity of synthetic analogs was studied using cells that stably express CLR/RAMP1 (1321N1 cells) or CLR/RAMP2 (CHO-K1 cells) receptors using CLR/RAMP1 cAMP and CLR/RAMP2 arrestin assays from DiscoveRx (Fremont, Ca). In receptor-activation assays, the dose-dependent stimulatory response was studied in duplicate, at 10 different concentrations.
CLR/RAMP1, sequence (Q16602 23-461): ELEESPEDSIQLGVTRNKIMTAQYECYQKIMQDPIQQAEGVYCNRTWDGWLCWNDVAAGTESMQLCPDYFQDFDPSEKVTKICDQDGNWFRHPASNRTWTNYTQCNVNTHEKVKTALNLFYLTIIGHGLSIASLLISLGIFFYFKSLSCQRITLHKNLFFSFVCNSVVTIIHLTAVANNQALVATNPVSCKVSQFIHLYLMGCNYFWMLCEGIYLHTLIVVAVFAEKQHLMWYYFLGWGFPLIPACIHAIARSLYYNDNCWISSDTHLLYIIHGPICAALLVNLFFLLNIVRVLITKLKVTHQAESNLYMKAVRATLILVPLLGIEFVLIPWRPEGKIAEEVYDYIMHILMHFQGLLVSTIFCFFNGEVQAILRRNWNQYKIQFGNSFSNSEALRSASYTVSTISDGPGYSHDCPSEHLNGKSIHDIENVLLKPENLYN
CLR/RAMP1, sequence (O60894 27-148): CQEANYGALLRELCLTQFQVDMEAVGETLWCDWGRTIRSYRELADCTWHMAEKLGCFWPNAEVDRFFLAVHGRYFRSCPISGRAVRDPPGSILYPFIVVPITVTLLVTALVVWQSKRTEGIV
For the analysis of signaling in CLR/RAMP1-expressing cells, cAMP Hunter cell lines were expanded from freezer stocks, and cells were seeded in white walled, 384-well microplates and incubated at 37C for the appropriate time. The activity was determined using the DiscoveRx HitHunter cAMP XS+ assay. Media was aspirated from cells and replaced with 15 μl 2:1 HBSS/10mM Hepes:cAMP XS+ Ab reagent. Intermediate dilution of sample stocks was performed to generate 4X sample in assay buffer, and 5 μl of 4X sample was added to cells and incubated at 37C or room temperature for the appropriate time. Vehicle concentration was 1%.
Microplates were read with a PerkinElmer instrument for chemiluminescent signal detection.
Background: Cyclic AMP is a second messenger, typically raised through Gs and lowered through Gi signalling.

The target in experiment [2] is CLR/RAMP2 (Homo sapiens, UniProt O60895+Q16602). Description: CLR/RAMP2 PathHunter β-arrestin assay, agonist mode. The experiment is classed as cell-based. The note with it: for CLR/RAMP2 Max Activity % of control: agonist mode, positive control ADM, CHO-K1 cells. On the procedure:
as §1
The CLR/RAMP2 signaling was assayed using the CLR/RAMP2 PathHunter β-Arrestin assay. In this assay, the GPCR was fused in frame with a small enzyme donor fragment ProLink (PK) and co-expressed in cells stably expressing a fusion protein of β-arrestin and an N-terminal deletion mutant of β-galactosidase (i.e., enzyme acceptor or EA). Activation of the CLR/RAMP2 stimulates binding of β-arrestin to the PK-tagged receptor and leads to an increase in enzyme activity that can be measured using chemiluminescent PathHunter Detection Reagents. PathHunter cell lines were seeded in white walled, 384-well microplates and incubated at 37C prior to testing. For agonist determination, intermediate dilution of sample stocks was performed to generate 5X sample in assay buffer, and 5 μl of 5X sample was added to cells and incubated at 37C for 90 minutes. Vehicle concentration was 1%. For antagonistic activity determination, cells were pre-incubated with antagonist followed by agonist challenge at the EC80 concentration.

Experiment [3] deals with CLR/RAMP1 receptor complex (UniProt Q16602).
CLR/RAMP1 receptor complex, sequence (Q16602 23-461, chain 1 of 2): as the sequence (Q16602 23-461) above
CLR/RAMP1 receptor complex, sequence (O60894 27-148, chain 2 of 2, further chain): as the sequence (O60894 27-148) above
Experiment [4] has as its target CLR/RAMP2 receptor complex (UniProt Q16602).
Experiment [5] has the same target. The source holds these as a separate data set.

CLR/RAMP2 receptor complex, sequence (Q16602 23-461, chain 1 of 2): as the sequence (Q16602 23-461) above
CLR/RAMP2 receptor complex, sequence (O60895 43-175, chain 2 of 2, further chain): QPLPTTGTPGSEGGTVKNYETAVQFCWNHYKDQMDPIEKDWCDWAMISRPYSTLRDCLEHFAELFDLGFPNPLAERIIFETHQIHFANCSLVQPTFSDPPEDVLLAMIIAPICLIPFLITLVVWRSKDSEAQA
CLR/RAMP2, sequence (Q16602 23-461): as the sequence (Q16602 23-461) above
CLR/RAMP2, sequence (O60895 43-175): as the sequence (O60895 43-175, chain 2 of 2, further chain) above

For the compound `CC[C@H](C)[C@H](NC(=O)[C@H](CCC(N)=O)NC(=O)[C@H](Cc1c[nH]cn1)NC(=O)[C@H](C)NC(=O)[C@H](CC(C)C)NC(=O)[C@H](CCCCN)NC(=O)[C@H](CCC(N)=O)NC(=O)[C@@H](NC(=O)[C@@H](NC(=O)[C@@H]1CSSC[C@H](NC(=O)CNC(=O)[C@@H](N)Cc2ccccc2)C(=O)N[C@@H](CCCNC(=N)N)C(=O)N[C@@H](Cc2ccccc2)C(=O)NCC(=O)N[C@@H]([C@@H](C)O)C(=O)N1)[C@@H](C)O)C(C)C)C(=O)N[C@@H](Cc1ccc(O)cc1)C(=O)N[C@@H](CCC(N)=O)C(=O)N[C@@H](Cc1ccccc1)C(=O)N[C@H](C(=O)N[C@@H](CC(=O)O)C(=O)N[C@@H](CCCCN)C(=O)N[C@@H](CC(=O)O)C(=O)N[C@@H](CCCCN)C(=O)N[C@@H](CC(=O)O)C(=O)N[C@@H](CC(N)=O)C(=O)N[C@H](C(=O)N[C@@H](C)C(=O)N1CCC[C@H]1C(=O)N[C@@H](CCCNC(=N)N)C(=O)N[C@@H](CO)C(=O)N[C@@H](CCCCN)C(=O)N[C@H](C(=O)N[C@@H](CO)C(=O)N1CCC[C@H]1C(=O)N[C@@H](CCC(N)=O)C(=O)NCC(=O)N[C@@H](Cc1ccc(O)cc1)C(N)=O)[C@@H](C)CC)C(C)C)[C@@H](C)O` [ADM14-52, adrenomedullin 14–52, reference compound], the “CLR/RAMP1 Max Activity % of control” value in experiment [1] is 69 % of control. The “CLR/RAMP2 Max Activity % of control” value in experiment [2] is recorded as 102 % of control.

Take `CC[C@H](C)[C@H](NC(=O)[C@H](CCC(N)=O)NC(=O)[C@H](Cc1c[nH]cn1)NC(=O)[C@H](C)NC(=O)[C@H](CC(C)C)NC(=O)[C@H](CCCCN)NC(=O)[C@H](CCC(N)=O)NC(=O)[C@@H](NC(=O)[C@@H](NC(=O)[C@@H]1CSSC[C@H](NC(=O)CNC(=O)[C@@H](N)CCCCN)C(=O)N[C@@H](CCCNC(=N)N)C(=O)N[C@@H](Cc2ccccc2)C(=O)NCC(=O)N[C@@H]([C@@H](C)O)C(=O)N1)[C@@H](C)O)C(C)C)C(=O)N[C@@H](Cc1ccc(O)cc1)C(=O)N[C@@H](CCC(N)=O)C(=O)N[C@@H](Cc1ccccc1)C(=O)N[C@H](C(=O)N[C@@H](CC(=O)O)C(=O)N[C@@H](CCCCN)C(=O)N[C@@H](CC(=O)O)C(=O)N[C@@H](CCCCN)C(=O)N[C@@H](CC(=O)O)C(=O)N[C@@H](CC(N)=O)C(=O)N[C@@H](CO)C(=O)N[C@@H](C)C(=O)N1CCC[C@H]1C(=O)N[C@H](C(=O)N[C@@H](CC(=O)O)C(=O)N1CCC[C@H]1C(=O)N[C@@H](CO)C(=O)N[C@@H](CO)C(=O)N1CCC[C@H]1C(=O)N[C@@H](Cc1c[nH]cn1)C(=O)N[C@@H](CO)C(=O)N[C@@H](Cc1ccc(O)cc1)C(N)=O)C(C)C)[C@@H](C)O` [Agonist 2]: the EC50 in experiment [1] (1321N1 cells stably expressing CLR/RAMP1, cAMP read-out, chemiluminescence, 10-point dose response, 3-fold dilution, in duplicate) was 0.031 µM; in experiment [2] (CHO-K1 cells stably expressing CLR/RAMP2, β-arrestin recruitment, 90 min at 37C, 10-point dose response in duplicate) it was 0.018 µM. The “CLR/RAMP1 Max Activity % of control” value in experiment [1] is recorded as 95 % of control. For the same compound, in experiment [2], the “CLR/RAMP2 Max Activity % of control” value is 115 % of control.

As to ADM22-52 (peptide), the IC50 of inhibition of CGRP-mediated CLR/RAMP1 cAMP signalling (EC80 of CGRP; pair blocked: m4 + m24) in experiment [3] was 6.6 µM. For the same compound, the IC50 of inhibition of ADM-mediated CLR/RAMP2 β-arrestin signalling (EC80 of ADM; pair blocked: ADM + m25) in experiment [4] worked out at 0.256 µM.

With CGRP8-37 (peptide), in experiment [4], the IC50 of inhibition of ADM-mediated CLR/RAMP2 β-arrestin signalling (EC80 of ADM; pair blocked: ADM + m25) is > 10 µM.

adrenomedullin 2 (peptide) came in with an EC50 of CLR/RAMP2 signalling (CHO-K1 cells, PathHunter β-Arrestin assay) in experiment [5] of 0.07 µM.

Compound adrenomedullin 14–52 (peptide) came in with an EC50 of CLR/RAMP2 signalling (CHO-K1 cells, PathHunter β-Arrestin assay) in experiment [5] of 0.009 µM.
